# PubChem BioAssay AID330 (DTP/NCI, 2004)
# Several values for one entry are separate records, joined by “and”; a condition that tells them apart may be missing. Equal values may be shown once. Toxic doses and inconclusive results are not listed.
# System: P388 leukemia ip, CD2F1 mice, survival T/C
# Test: NCI In Vivo Anticancer Drug Screen. Data for tumor model P388 Leukemia (intraperitoneal) in CD2F1 (CDF1) mice
# Details: endpoint: median survival time, higher = longer survival
# Procedure, shortened: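 Mice carrying the transplanted tumor received test compound or vehicle. Survival was recorded in each group, and the value is the treated-group measurement divided by that of the vehicle-treated control group.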
# [1] = dose: 60.0 mg/kg/injection, schedule: Q01DX005 (ip), vehicle: Klucel (hydroxypropylcellulose) (HPC)
# [2] = dose: 120.0 mg/kg/injection, schedule: Q01DX005 (ip), vehicle: Klucel (hydroxypropylcellulose) (HPC)
# [3] = dose: 240.0 mg/kg/injection, schedule: Q01DX005 (ip), vehicle: Klucel (hydroxypropylcellulose) (HPC)
# [4] = dose: 12.5 mg/kg/injection, schedule: Q01DX009 (ip), vehicle: saline with Tween-80
# [5] = dose: 25.0 mg/kg/injection, schedule: Q01DX009 (ip), vehicle: saline with Tween-80
# [6] = dose: 50.0 mg/kg/injection, schedule: Q01DX009 (ip), vehicle: saline with Tween-80
# [7] = dose: 100.0 mg/kg/injection, schedule: Q01DX009 (ip), vehicle: saline with Tween-80
# [8] = dose: 60.0 mg/kg/injection, schedule: Q01DX005 (ip), vehicle: saline with Tween-80
# [9] = dose: 50.0 mg/kg/injection, schedule: Q01DX009 (ip), vehicle: saline
# [10] = dose: 100.0 mg/kg/injection, schedule: Q01DX009 (ip), vehicle: saline
# [11] = dose: 200.0 mg/kg/injection, schedule: Q01DX009 (ip), vehicle: saline
# [12] = dose: 50.0 mg/kg/injection, schedule: Q01DX005 (ip), vehicle: Klucel (hydroxypropylcellulose) (HPC)
# [13] = dose: 100.0 mg/kg/injection, schedule: Q01DX005 (ip), vehicle: Klucel (hydroxypropylcellulose) (HPC)
# [14] = dose: 200.0 mg/kg/injection, schedule: Q01DX005 (ip), vehicle: Klucel (hydroxypropylcellulose) (HPC)
# [15] = dose: 120.0 mg/kg/injection, schedule: Q01DX005 (ip), vehicle: saline with Tween-80
# [16] = dose: 240.0 mg/kg/injection, schedule: Q01DX005 (ip), vehicle: saline with Tween-80
smiles,measurement,setting,value
CCN(CCCNc1cc(OC)cc2cccnc12)C(C)C,T/C,"dose: 3.12 mg/kg/injection, schedule: Q01DX005 (ip), vehicle: saline",98 % of control
same,T/C,"dose: 6.25 mg/kg/injection, schedule: Q01DX005 (ip), vehicle: saline",92 % of control
same,T/C,"dose: 12.5 mg/kg/injection, schedule: Q01DX005 (ip), vehicle: saline",107 % of control
O/N=C/C(=NCc1ccccn1)NO,T/C,[1],107 % of control
same,T/C,[2],103 % of control
same,T/C,[3],103 % of control
CC(=O)OC1(c2ccccc2)N=C(c2ccccc2)N=C1c1ccccc1 (stereo not drawn),T/C,[1],106 % of control
same,T/C,[2],110 % of control
same,T/C,[3],105 % of control
C=C(C)C(O)C(O)c1cc2ccc(=O)oc2cc1OC (stereo not drawn),T/C,[4],99 % of control
same,T/C,[5],99 % of control
same,T/C,[6],99 % of control
same,T/C,[7],107 % of control
C=C(C)C(=O)OC1CC2=CC(CC3(C)OC3C3OC(=O)C(=C)C13)OC2=O (stereo not drawn),T/C,"dose: 2.25 mg/kg/injection, schedule: Q01DX009 (ip), vehicle: Klucel (hydroxypropylcellulose) (HPC)",100 % of control
same,T/C,"dose: 2.3 mg/kg/injection, schedule: Q01DX009 (ip), vehicle: Klucel (hydroxypropylcellulose) (HPC)",103 % of control
same,T/C,"dose: 4.5 mg/kg/injection, schedule: Q01DX009 (ip), vehicle: Klucel (hydroxypropylcellulose) (HPC)",100 % of control and 97 % of control
same,T/C,"dose: 9.0 mg/kg/injection, schedule: Q01DX009 (ip), vehicle: Klucel (hydroxypropylcellulose) (HPC)",100 % of control and 111 % of control
same,T/C,"dose: 18.0 mg/kg/injection, schedule: Q01DX009 (ip), vehicle: Klucel (hydroxypropylcellulose) (HPC)",114 % of control and 115 % of control
Fc1ccccc1C(Nc1nncs1)Nc1nncs1,T/C,"dose: 15.0 mg/kg/injection, schedule: Q01DX005 (ip), vehicle: saline with Tween-80",95 % of control
same,T/C,"dose: 30.0 mg/kg/injection, schedule: Q01DX005 (ip), vehicle: saline with Tween-80",94 % of control
same,T/C,[8],102 % of control and 104 % of control
Cc1ccc(S(=O)(=O)N(Cc2ccccc2)S(=O)(=O)c2ccc(C)cc2)cc1,T/C,[5],110 % of control
same,T/C,[6],118 % of control
same,T/C,[7],101 % of control
CC(=O)ON(C(C)=O)c1ccc(C(=O)OC2(C)CC(C)(C)[N+]([O-])=N2)cc1 (stereo not drawn) (tested in a mixture with another compound),T/C,"dose: 12.5 mg/kg/injection, schedule: Q01DX009 (ip), vehicle: water",95 % of control
same,T/C,"dose: 25.0 mg/kg/injection, schedule: Q01DX009 (ip), vehicle: water",101 % of control
same,T/C,"dose: 50.0 mg/kg/injection, schedule: Q01DX009 (ip), vehicle: water",94 % of control
same,T/C,"dose: 200.0 mg/kg/injection, schedule: Q01DX009 (ip), vehicle: water",106 % of control
C#CC(C)(CC)OC(=O)c1ccccc1C(=O)O (stereo not drawn),T/C,[9],100 % of control
same,T/C,[10],104 % of control
same,T/C,[11],95 % of control
CC1=C2C(=CC(C)(C)[C@@H]2O)C(=O)[C@](C)(O)C12CC2,T/C,"dose: 0.26 mg/kg/injection, schedule: Q01DX010 (ip), vehicle: saline",110 % of control
same,T/C,"dose: 0.4 mg/kg/injection, schedule: Q01DX010 (ip), vehicle: saline",110 % of control
same,T/C,"dose: 0.6 mg/kg/injection, schedule: Q01DX010 (ip), vehicle: saline",115 % of control
same,T/C,"dose: 45.0 micrograms/kg/injection, schedule: Q01DX010 (ip), vehicle: saline",100 % of control
same,T/C,"dose: 90.0 micrograms/kg/injection, schedule: Q01DX010 (ip), vehicle: saline",104 % of control
same,T/C,"dose: 180.0 micrograms/kg/injection, schedule: Q01DX010 (ip), vehicle: saline",113 % of control
COc1ccc(N(CN2C(=O)CCC2=O)CS(=O)(=O)c2ccc(Cl)cc2)cc1,T/C,[1],97 % of control
same,T/C,[2],90 % of control
same,T/C,[3],100 % of control
NCC(S)c1ccc(Cl)cc1 (stereo not drawn),T/C,"dose: 12.5 mg/kg/injection, schedule: Q01DX001 (ip), vehicle: saline",100 % of control
same,T/C,"dose: 25.0 mg/kg/injection, schedule: Q01DX001 (ip), vehicle: saline",100 % of control
same,T/C,"dose: 50.0 mg/kg/injection, schedule: Q01DX001 (ip), vehicle: saline",100 % of control
COc1ccc(C(=O)/C=C/c2ccc(OC)c(OC)c2OC)c(OC(C)=O)c1,T/C,"dose: 100.0 mg/kg/injection, schedule: Q04DX003 (ip), vehicle: Klucel (hydroxypropylcellulose) (HPC)",98 % of control
same,T/C,"dose: 200.0 mg/kg/injection, schedule: Q04DX003 (ip), vehicle: Klucel (hydroxypropylcellulose) (HPC)",91 % of control
same,T/C,"dose: 400.0 mg/kg/injection, schedule: Q04DX003 (ip), vehicle: Klucel (hydroxypropylcellulose) (HPC)",93 % of control
Cc1cc(N(C)C)nc2cc(N)ccc12,T/C,[4],103 % of control
same,T/C,[5],111 % of control
same,T/C,[6],101 % of control and 89 % of control
C=CCOc1cc2c(cc1Cc1ccc3c(c1)OCO3)OCO2,T/C,"dose: 50.0 mg/kg/injection, schedule: Q01DX005 (ip), vehicle: saline with Tween-80",100 % of control
same,T/C,"dose: 100.0 mg/kg/injection, schedule: Q01DX005 (ip), vehicle: saline with Tween-80",100 % of control
same,T/C,"dose: 200.0 mg/kg/injection, schedule: Q01DX005 (ip), vehicle: saline with Tween-80",103 % of control
CS(=O)(=O)CCS(C)(=O)=O,T/C,[6],102 % of control
same,T/C,"dose: 200.0 mg/kg/injection, schedule: Q01DX009 (ip), vehicle: saline with Tween-80",89 % of control
CC(C)(C)NC(=O)OCc1c(COC(=O)NC(C)(C)C)c(-c2ccc(Cl)c(Cl)c2)n2c1CCC2,T/C,"dose: 6.25 mg/kg/injection, schedule: Q01DX009 (ip), vehicle: distilled water + Tween-80",123 % of control
same,T/C,"dose: 12.5 mg/kg/injection, schedule: Q01DX009 (ip), vehicle: distilled water + Tween-80",124 % of control
same,T/C,"dose: 50.0 mg/kg/injection, schedule: Q01DX009 (ip), vehicle: distilled water + Tween-80",158 % of control and 164 % of control
same,T/C,"dose: 100.0 mg/kg/injection, schedule: Q01DX009 (ip), vehicle: distilled water + Tween-80",164 % of control and 167 % of control
same,T/C,"dose: 200.0 mg/kg/injection, schedule: Q01DX009 (ip), vehicle: distilled water + Tween-80",172 % of control
same,T/C,"dose: 400.0 mg/kg/injection, schedule: Q01DX009 (ip), vehicle: distilled water + Tween-80",117 % of control
CC1CCP(=O)(c2ccccc2)C1 (stereo not drawn),T/C,"dose: 50.0 mg/kg/injection, schedule: Q01DX005 (ip), vehicle: saline",104 % of control
same,T/C,"dose: 100.0 mg/kg/injection, schedule: Q01DX005 (ip), vehicle: saline",105 % of control
same,T/C,"dose: 200.0 mg/kg/injection, schedule: Q01DX005 (ip), vehicle: saline",105 % of control
CCC(CO)[N-]CC[N-]C(CC)CO.CCC(CO)[N-]CC[N-]C(CC)CO.O.O.[Pd+2].[Pd+2] (stereo not drawn),T/C,[12],91 % of control
same,T/C,[13],97 % of control
same,T/C,[14],98 % of control
N#CCOC1OC(CO)C(O)C(O)C1O (stereo not drawn),T/C,[12],100 % of control
same,T/C,[13],99 % of control
same,T/C,[14],99 % of control
O=C(/C=C/c1c(-c2ccccc2)[nH]c2ccccc12)c1ccc([N+](=O)[O-])cc1,T/C,[8],97 % of control
same,T/C,[15],90 % of control
same,T/C,[16],87 % of control
Cc1ccc2nc(N/N=C/c3cccnc3)sc2c1,T/C,"dose: 50.0 mg/kg/injection, schedule: Q01DX009 (ip), vehicle: Klucel (hydroxypropylcellulose) (HPC)",105 % of control
same,T/C,"dose: 100.0 mg/kg/injection, schedule: Q01DX009 (ip), vehicle: Klucel (hydroxypropylcellulose) (HPC)",100 % of control
same,T/C,"dose: 200.0 mg/kg/injection, schedule: Q01DX009 (ip), vehicle: Klucel (hydroxypropylcellulose) (HPC)",96 % of control
O=C(O)C1CSC(c2ccncc2)N1 (stereo not drawn),T/C,[9],96 % of control and 97 % of control
same,T/C,[10],96 % of control
same,T/C,[11],94 % of control
Cc1cc2n(n1)C(=O)CC(=O)C2,T/C,[8],98 % of control
same,T/C,[15],100 % of control
same,T/C,[16],109 % of control
CCc1nc(N)nc(N)c1-c1ccc(NC)c(N)c1,T/C,"dose: 100.0 mg/kg/injection, schedule: Q04DX002 (ip), vehicle: Klucel (hydroxypropylcellulose) (HPC)",96 % of control
same,T/C,"dose: 200.0 mg/kg/injection, schedule: Q04DX002 (ip), vehicle: Klucel (hydroxypropylcellulose) (HPC)",105 % of control
